The structures appear in SMILES notation. pIC50: −log10 of the molar value. The source made the active and inactive calls. The rule behind the calls is not given here.

IC50 and SC200 data for 47 molecules are collected here from ChEMBL document CHEMBL1130551, “Synthesis and progesterone receptor binding affinity of substituted 1-phenyl-7-benzyl-4,5,6,7-tetrahydro-1-indazoles” (Bioorg Med Chem Lett, 1997).

The target of assay [1] is T1, Progesterone receptor (Oryctolagus cuniculus, UniProt P06186).
T1 sequence (P06186 whole entry): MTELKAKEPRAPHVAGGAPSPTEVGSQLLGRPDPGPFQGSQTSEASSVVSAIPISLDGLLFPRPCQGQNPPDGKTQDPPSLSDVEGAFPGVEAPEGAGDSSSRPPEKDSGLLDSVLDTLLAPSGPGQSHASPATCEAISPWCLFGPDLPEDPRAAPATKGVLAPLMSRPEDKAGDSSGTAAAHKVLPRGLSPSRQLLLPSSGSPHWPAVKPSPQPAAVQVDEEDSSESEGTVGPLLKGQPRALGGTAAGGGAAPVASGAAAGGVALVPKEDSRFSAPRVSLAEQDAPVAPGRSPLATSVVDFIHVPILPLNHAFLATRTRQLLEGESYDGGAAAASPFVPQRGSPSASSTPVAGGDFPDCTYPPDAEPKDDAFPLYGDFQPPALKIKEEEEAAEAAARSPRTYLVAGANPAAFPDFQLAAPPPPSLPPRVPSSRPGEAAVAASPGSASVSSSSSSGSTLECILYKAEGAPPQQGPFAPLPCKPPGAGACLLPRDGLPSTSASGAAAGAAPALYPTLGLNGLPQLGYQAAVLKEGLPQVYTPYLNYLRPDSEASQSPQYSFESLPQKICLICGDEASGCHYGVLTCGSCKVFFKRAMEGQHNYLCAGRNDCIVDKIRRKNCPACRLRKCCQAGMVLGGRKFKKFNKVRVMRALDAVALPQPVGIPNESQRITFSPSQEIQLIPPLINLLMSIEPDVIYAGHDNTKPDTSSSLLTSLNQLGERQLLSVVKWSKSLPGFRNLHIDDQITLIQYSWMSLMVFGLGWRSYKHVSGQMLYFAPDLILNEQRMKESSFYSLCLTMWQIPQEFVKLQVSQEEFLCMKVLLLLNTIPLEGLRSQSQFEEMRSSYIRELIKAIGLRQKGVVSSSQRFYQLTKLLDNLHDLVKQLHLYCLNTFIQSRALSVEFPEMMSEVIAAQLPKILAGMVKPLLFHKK
Description: Binding affinity determined by ability to displace [3H]R5020 radioligand using uterine progesterone receptor obtained from estrogen-primed rabbit.

Assay [2] deals with T47D. Description: Agonistic activity in T47D human breast carcinoma cell proliferation assay. It counts as functional.
The subject of assay [3] is T47D. Kind of assay: Agonistic activity in T47D human breast carcinoma cell proliferation assay; Not active. It counts as functional, cell-based.
In assay [4] the target is T1, Progesterone receptor. Kind of assay: Displacement of [3H]R5020 from uterine progesterone receptor of estrogen-primed rabbits; Not active up to 10 uM.
Assay [5] deals with T47D. Kind of assay: Agonistic activity in T47D human breast carcinoma cell proliferation assay; Not active up to 10 uM. It counts as functional, cell-based.
Assay [6] concerns the target T1, Progesterone receptor. Description: Displacement of [3H]R5020 from uterine progesterone receptor of estrogen-primed rabbits; Not active. (Displacement assays read how much labelled ligand stays bound in the presence of the test substance.)

For `CC(=O)c1nn(-c2ccc(F)cc2)c2c1CCCC2Cc1cccc2ccccc12` (centres undefined), the negative logarithm of the IC50 (pIC50) in assay [1] is 5.76. As for `COc1cccc(CC2CCCc3c(C=O)nn(-c4ccc(F)cc4)c32)c1` (centres undefined), in assay [1], the pIC50 is 7.77. In assay [2], this molecule displayed an SC200 of 417 nM. `N#Cc1nn(-c2ccc(F)cc2)c2c1CCCC2Cc1cccc2ccccc12` (centres undefined) had a pIC50 in assay [1] of 7.39. Also, in assay [3], the SC200 result is “inactive”.

Turning to `COC(=O)c1ccc(-n2nc(C=O)c3c2C(Cc2cccc4ccccc24)CCC3)cc1` (centres undefined), the IC50 result in assay [4] is “Not Active”. As for `Fc1ccc(-n2nc(/C=N/c3ccccc3)c3c2C(Cc2cccc4ccccc24)CCC3)cc1` (centres undefined), the pIC50 in assay [1] was 8.64. In assay [2], this molecule came in with an SC200 of 185 nM.

On to `CC(C)(C)c1ccc(CC2CCCc3c(C=O)nn(-c4ccc(F)cc4)c32)cc1` (centres undefined), for which, in assay [1], the pIC50 was 6.00. As for `CCN(CC)Cc1nn(-c2ccc(F)cc2)c2c1CCCC2Cc1cccc2ccccc12` (centres undefined), in assay [1], the pIC50 is 5.86. The pIC50 values of the last two molecules are within 0.2 log units of each other.

For `COc1ccc(CC2CCCc3c(C=O)nn(-c4ccc(F)cc4)c32)cc1` (centres undefined), the pIC50 in assay [1] is 6.79.

Molecule `O=Cc1nn(-c2cccc(Cl)c2)c2c1CCCC2Cc1cccc2ccccc12` (centres undefined) gave a pIC50 in assay [1] of 7.16. Consider `O=S(=O)(N/N=C/c1nn(-c2ccc(F)cc2)c2c1CCCC2Cc1cccc2ccccc12)c1ccccc1` (centres undefined), for which, in assay [1], the pIC50 was less than 5.00. Further, the SC200 entry in assay [3] is “inactive”.

`OCc1nn(-c2ccc(F)cc2)c2c1CCCC2Cc1cccc2ccccc12` (centres undefined) gave a pIC50 in assay [1] of 7.28. In addition, the SC200 entry in assay [5] was “inactive”. `C=Cc1nn(-c2ccc(F)cc2)c2c1CCCC2Cc1cccc2ccccc12` (centres undefined) gave a pIC50 in assay [1] of 6.83. Besides, in assay [3], the SC200 entry was “inactive”.

For `O=Cc1nn(-c2ccc(F)cc2)c2c1CCCC2Cc1ccc(F)c(F)c1` (centres undefined), the pIC50 in assay [1] is 8.70. In assay [2], this molecule had an SC200 of 81 nM. Turning to `O=Cc1nn(-c2ccc(O)cc2)c2c1CCCC2Cc1cccc2ccccc12` (centres undefined), the IC50 result in assay [6] is “Not Active”.

Consider `CCOC(=O)OCc1nn(-c2ccc(F)cc2)c2c1CCCC2Cc1cccc2ccccc12` (centres undefined), for which, in assay [1], the pIC50 was 7.05. In addition, the SC200 entry in assay [3] was “inactive”. In turn, `O=Cc1nn(-c2ccc(F)cc2)c2c1CCCC2Cc1ccc(F)cc1` (centres undefined) showed a pIC50 in assay [1] of 8.19. Besides, the SC200 in assay [2] is 27 nM. Take `O/N=C/c1nn(-c2ccc(F)cc2)c2c1CCCC2Cc1cccc2ccccc12` (centres undefined): the pIC50 in assay [1] is 6.20. On to `O=Cc1nn(-c2ccccc2)c2c1CCCC2Cc1cccc2ccccc12` (centres undefined), for which the pIC50 in assay [1] was 8.22. In addition, the SC200 in assay [2] came out at 56 nM. In assay [1], `CCN(CC)C(=O)c1nn(-c2ccc(F)cc2)c2c1CCCC2Cc1cccc2ccccc12` (centres undefined) showed a pIC50 of 5.52. The molecule `O=C(N/N=C/c1nn(-c2ccc(F)cc2)c2c1CCCC2Cc1cccc2ccccc12)c1ccccc1` (centres undefined) had a pIC50 in assay [1] of less than 5.00. In assay [2], this molecule registered an SC200 of 2265 nM. In assay [1], `CC(=O)OC(OC(C)=O)c1nn(-c2ccc(F)cc2)c2c1CCCC2Cc1cccc2ccccc12` (centres undefined) gave a pIC50 of 8.28. The same molecule gave an SC200 in assay [2] of 72 nM. As for `Fc1ccc(-n2nc(CNCc3ccccc3)c3c2C(Cc2cccc4ccccc24)CCC3)cc1` (centres undefined), in assay [1], the pIC50 was 5.86. `O=Cc1nn(-c2ccc(Cl)cc2)c2c1CCCC2Cc1cccc2ccccc12` (centres undefined) gave a pIC50 in assay [1] of 8.05. Moreover, in assay [3], the SC200 entry is “inactive”. Take `CC(O)c1nn(-c2ccc(F)cc2)c2c1CCCC2Cc1cccc2ccccc12` (centres undefined): in assay [1], the pIC50 was 6.63. For the molecule `CCC(=O)c1nn(-c2ccc(F)cc2)c2c1CCCC2Cc1cccc2ccccc12` (centres undefined), the pIC50 in assay [1] was 6.00.

As to `O=C(OCc1nn(-c2ccc(F)cc2)c2c1CCCC2Cc1cccc2ccccc12)c1ccccc1` (centres undefined), the pIC50 in assay [1] is 6.74. Moreover, the SC200 result in assay [3] is “inactive”. As to `CN(C)/N=C/c1nn(-c2ccc(F)cc2)c2c1CCCC2Cc1cccc2ccccc12` (centres undefined), in assay [1], the pIC50 was 6.26. In assay [3], the SC200 result is “inactive”. For the molecule `O=Cc1nn(-c2ccc(F)cc2)c2c1CCCC2Cc1ccccc1Cl` (centres undefined), the pIC50 in assay [1] is 7.98. For the same molecule, the SC200 in assay [2] stood at 100 nM. `O=Cc1nn(-c2ccc(F)cc2)c2c1CCCC2Cc1ccc(Cl)cc1` (centres undefined) gave a pIC50 in assay [1] of 7.92. Moreover, in assay [3], the SC200 result is “inactive”.

In the case of `O=Cc1nn(-c2ccc(F)cc2)c2c1CCCC2Cc1ccc(-c2ccccc2)cc1` (centres undefined), the pIC50 in assay [1] is 5.00. `O=Cc1nn(-c2ccc(F)cc2)c2c1CCCC2Cc1ccc2ccccc2c1` (centres undefined) gave a pIC50 in assay [1] of 7.25. Besides, in assay [3], the SC200 entry is “inactive”. With `CN/N=C/c1nn(-c2ccc(F)cc2)c2c1CCCC2Cc1cccc2ccccc12` (centres undefined), the pIC50 in assay [1] was 7.31. The SC200 entry in assay [3] is “inactive”. In assay [1], `CCCCOC(=O)c1ccc(-n2nc(C=O)c3c2C(Cc2cccc4ccccc24)CCC3)cc1` (centres undefined) gave a pIC50 of 6.07. In addition, in assay [3], the SC200 result is “inactive”. `COc1ccc(CC2CCCc3c(C=O)nn(-c4ccc(F)cc4)c32)cc1OC` (centres undefined) gave a pIC50 in assay [1] of 5.72. In the case of `Fc1ccc(-n2nc(C3OCCO3)c3c2C(Cc2cccc4ccccc24)CCC3)cc1` (centres undefined), the pIC50 in assay [1] was 7.01. For the molecule `CC(=O)OCc1nn(-c2ccc(F)cc2)c2c1CCCC2Cc1cccc2ccccc12` (centres undefined), the pIC50 in assay [1] was 7.14. In addition, the SC200 result in assay [3] is “inactive”. For the molecule `CC(=O)N/N=C/c1nn(-c2ccc(F)cc2)c2c1CCCC2Cc1cccc2ccccc12` (centres undefined), the pIC50 in assay [1] is less than 5.00. With `O=C(NCc1ccccc1)c1nn(-c2ccc(F)cc2)c2c1CCCC2Cc1cccc2ccccc12` (centres undefined), the pIC50 in assay [1] is less than 5.00.

Molecule `CCCCCCCC(=O)OCc1nn(-c2ccc(F)cc2)c2c1CCCC2Cc1cccc2ccccc12` (centres undefined) gave a negative-log IC50 (pIC50) in assay [1] of 5.40. The SC200 result in assay [3] is “inactive”. In turn, `O=Cc1nn(-c2ccc(F)cc2)c2c1CCCC2Cc1cccc2ccccc12` (centres undefined) gave a pIC50 in assay [1] of 8.49. The molecule also registered an SC200 in assay [2] of 105 nM. In assay [1], `O=Cc1nn(-c2ccc(F)cc2)c2c1CCCC2Cc1ccccc1` (centres undefined) had a pIC50 of 8.52. In assay [2], this molecule showed an SC200 of 22 nM. With `CC(C)c1ccc(CC2CCCc3c(C=O)nn(-c4ccc(F)cc4)c32)cc1` (centres undefined), in assay [1], the pIC50 was 5.66. Same read-out and setting: the same measure for `COC(=O)Nc1nn(-c2ccc(F)cc2)c2c1CCCC2Cc1cccc2ccccc12` (centres undefined): 5.80. Molecule `Cc1ccc(CC2CCCc3c(C=O)nn(-c4ccc(F)cc4)c32)cc1` (centres undefined) gave a pIC50 in assay [1] of 8.11. Moreover, the SC200 in assay [2] stood at 275 nM. Take `CCC(O)c1nn(-c2ccc(F)cc2)c2c1CCCC2Cc1cccc2ccccc12` (centres undefined): the pIC50 in assay [1] is 6.16. In the case of `COc1ccc(-n2nc(C=O)c3c2C(Cc2cccc4ccccc24)CCC3)cc1` (centres undefined), the pIC50 in assay [1] was 7.90. Further, the SC200 result in assay [3] is “inactive”. `CCCCCCCCOC(=O)c1ccc(-n2nc(C=O)c3c2C(Cc2cccc4ccccc24)CCC3)cc1` (centres undefined) had a pIC50 in assay [1] of less than 5.00. The SC200 result in assay [3] was “inactive”.

By pIC50 is commonly meant the IC50 on a negative log10 scale, so that one unit is a factor of ten. Lower therefore signals a high IC50.
